Source: patent publication US5959145A, “Fatty acid analog enzyme substrates” (priority 1993, dated 1999)
“Also recorded” adds a separate entry of the source. No end group written: not given here. *: point of attachment. 11‑(ethylthio)undecanoyl = CCSCCCCCCCCCCC(=O)*; 125I = [125I]*

How the values were obtained:
[1] = C18 reverse phase HPLC elution of fatty acyl peptides (hydrophobicity); assay type: physicochemical; conditions: for elution earlier than corresponding myristoyl-peptide: C-18 reverse phase HPLC, FIG. 2; for Elution Time: C18 reverse phase HPLC, acyl derivative of GNAAS[125I]YRR, Table 2
Protocol: The fatty acid analog acyl-peptide eluted 7 minutes earlier than the corresponding myristoyl peptide. The free peptide elutes in the void volume (3-5minutes).
This difference was evident when the HPLC elution characteristics of fatty acyl peptides were examined. The elution time of a particular acyl-peptide depends strongly on the peptide sequence as well as on the acyl chain attached to that peptide. For example, the elution times of fatty acyl derivatives of GNAAAARR are (in minutes) decanoic acid, 9; dodecanoic acid, 18; myristic acid, 24; and palmitic acid, 30. Elution times for fatty acyl derivatives of GNAAS[^125 I]YRR are 23 and 28 minutes for C12 and C14 fatty acids, respectively (FIG. 2). […] Such a change could alter the biological activity of myristoyl proteins.
(§1) For these Examples, each analog synthesized is characterized by ^1 H and ^13 C NMR as well as mass spectroscopy. The analogs are then characterized kinetically as NMT substrates. Briefly, fatty acid analogs are converted to their CoA esters with Pseudomonas CoA ligase and incubated with the iodinated peptide GNAAS[^125 I]YRR and a source of NMT. […] The radiolabelled peptide is then used at concentrations which will lead to 50% enzyme saturation (i.e., at its Km) for the determination of fatty acid analog kinetic characteristics. Representative analogs with sulfur or oxygen in the backbone of the fatty acid chain serve as good substrates for NMT in vitro and will compete for incorporation of ^3 H labelled myri-state into yeast proteins in vivo. In addition, these analogs differ markedly in hydrophobicity from myri-state as measured both by C18 reverse phase HPLC elution profiles and by 2-octanol/water partition coefficients. The analog CH3 O(CH2)11 COOH, for example, partitions into water 20 fold better than myristate. It is believed that these analogs will be incorporated into mammalian acylproteins in vivo and that their incorporation into these proteins will drastically alter protein processing or targeting. It is further believed that the incorporation of fatty acid analogs of both myristate and palmitate into ester linked and phosphatidyl inositol glycan linked acylproteins will also dramatically alter their properties. Since many viral proteins and oncogenes are acylated, these compounds represent a new class of potential antiviral and antineoplastic agents.

yeast NMT = target: T1, yeast NMT (Saccharomyces cerevisiae, UniProt P14743); assay: kinetic characterisation of fatty acid analogs as yeast NMT substrates; assay type: biochemical; conditions: for Peptide Vm: peptide GNAAS[125I]YRR varied, fatty acid analog at 15 μM; for Peptide Vm / Acyl CoA Vm: myristate control = 100%; for Acyl CoA Vm / Km: radiolabelled peptide at its Km, analog varied; for Km: read-out: Acyl CoA Km
T1 construct: 11,000-fold purified preparation of yeast NMT; endogenous in cells; host or cells: yeast (enzyme purified from yeast, 11,000-fold)
T1 sequence (P14743 1-455): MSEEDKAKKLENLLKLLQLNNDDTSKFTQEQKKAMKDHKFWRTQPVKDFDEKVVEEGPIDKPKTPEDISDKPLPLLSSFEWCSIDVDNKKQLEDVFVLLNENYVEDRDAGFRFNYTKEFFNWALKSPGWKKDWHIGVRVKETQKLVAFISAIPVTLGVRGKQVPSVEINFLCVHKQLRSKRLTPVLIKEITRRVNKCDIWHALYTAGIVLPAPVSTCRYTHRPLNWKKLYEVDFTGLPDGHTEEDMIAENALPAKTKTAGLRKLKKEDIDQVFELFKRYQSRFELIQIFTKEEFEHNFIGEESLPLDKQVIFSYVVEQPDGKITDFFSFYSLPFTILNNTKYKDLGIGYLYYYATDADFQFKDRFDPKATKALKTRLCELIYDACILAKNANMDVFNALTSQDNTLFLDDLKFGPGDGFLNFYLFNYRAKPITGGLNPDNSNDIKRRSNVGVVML
Excerpt: Similar results were obtained using an 11,000-fold purified preparation of yeast NMT [Towler et al., Proc. Natl. Acad. Sci. USA 84, 2708-2712 (1987)].
Other illustrative examples of the oxy- and thio-substituted fatty acid analog substrate compounds of the invention were synthesized in Examples 6 to 14 and tested in Example 15 as substrates for the yeast NMT.
as §1

wheat germ NMT = assay: in vitro myristoylation assay with partially purified wheat germ NMT; assay type: biochemical
Protocol: Myristoyl CoA and fatty acid analog CoA were generated by incubation of the fatty acid or analog with CoA, ATP and CoA ligase. This reaction mixture was added to wheat germ NMT and Gly-Asn-Ala-Ala-Ser- [^125 I]Tyr-Arg-Arg in the presence of 0.03% Triton® X-100. Reaction products were characterized by reverse phase HPLC and gamma counting.
The invention is illustrated in greater detail in the following Examples 1 to 15 by the synthesis and testing of representative compounds of the invention as myristoylating enzyme substrates. Accordingly, the invention is first illustrated in Examples 1 to 5 by the chemical synthesis of a sulfur-containing analog of myristic acid, namely 11-(ethylthio)undecanoicacid, CH3 CH2 --S--(CH2)10 COOH, which is then tested in vitro as a wheat germ NMT substrate. Wheat germ NMT is a protein similar to yeast NMT. The purity and chemical identity of the synthesized compound were examined using ^1 H and ^13 C NMR as well as mass spectroscopy. The assay that was used to characterize the substrate specificity of wheat germ NMT measures the rate of attachment of a radiolabelled fatty acid to an unlabelled peptide. The fatty acid analog synthesized was nonradioactive.
Characterization of Partially Purified Wheat Germ NMT--Assays for NMT activity were performed using a procedure detailed previously by Towler and Glaser, Proc. Natl. Acad. Sci. USA 83, 2812-2816 (1986). Briefly, the in vitro assay measures the transfer of radiolabelled fatty acid from acyl CoA to a synthetic peptide substrate. The acylpeptide product is identified by reverse phase HPLC. Time and enzyme dependence were evaluated by varying the reaction time or the enzyme concentration. […] Fatty acid specificity was examined essentially as described by Towler et al., J. Biol. Chem. 262, 1030-1036 (1987), except that the peptide Gly-Ser-Ser-Lys-Ser-Lys-Pro-Lys rather than Gly-Asn-Ala-Ala-Ala-Ala-Arg-Arg was used to compare palmitate and myristate utilization by wheat germ NMT. This was necessary because of the presence of a large, peptide-independent peak which co-eluted with a palmitoyl-Gly-Asn-Ala-Ala-Ala-Ala-Arg-Arg standard. [^3 H]Palmitate and [^3 H]myristate were used in this comparison. [^14 C]fatty acids were used to compare C-10, C-12 and C-14 chain lengths. Fatty acyl CoA concentrations in these assays were determined by a modification of the method of Hosaka et al., Methods Enzymol. 71, 325-333 (1981).
Characterization of the Fatty Acid Analog--Gly-Asn-Ala-Ala-Ser-[^125 I]Tyr-Arg-Arg as prepared in Example 2, above, was tested in an in vitro myristoylation system which was modified from that used with radiolabelled fatty acids. […] 20-fold more wheat germ NMT (480-fold purified as in Example 3, above) was used for these assays than for assays which employed [^3 H] myristate. […] Double reciprocal plots were generated for the iodinated peptide with both myristic acid and the sulfur analog by altering the peptide concentration in the presence of a constant amount of fatty acid or analog. […] The assays contained 0.03% Triton X-100 to maintain the solubility of the fatty acids.

[2] = CoA ester, 40 μM iodinated peptide, 0.03% Triton X-100, FIG. 1

Peptide Vm (yeast NMT) [%]	Acyl CoA Vm (yeast NMT) [%]	Km (yeast NMT) [µM]	Elution Time [1] [min]	Compound	other results
				11-(ethylthio)undecanoyl-GNAAS[^125 I]YRR ({11‑(ethylthio)undecanoyl}-GNAASY(125I)RR) [fatty acid analog acyl-peptide formed by NMT from compound A and iodinated peptide GNAASYRR]	elution earlier than corresponding myristoyl-peptide [1]: seven; elution earlier than corresponding myristoyl-peptide ([1]; listed as 11-(ethylthio)undecanoyl-GNAASYRR[^125 I]): 7 min
200	320	6.5	9	C#CCOCCCCCCCCCC(=O)O [J, 10-(2-Propynoxy)decanoic acid]	
150	250	6.1	11 to 12	CCCOCCCCCCCCCC(=O)O [H, 10-(Propoxy)decanoic acid]	
98	130	1.4	18	CCSCCCCCCCCCCC(=O)O [A, 11-(Ethylthio)undecanoic acid]	Km for the analog relative to myristate (wheat germ NMT; [2]): 1.5 times higher; Vmax for the analog relative to myristate (wheat germ NMT; [2]): 3.5 times higher; Km (wheat germ NMT; fatty acid or analog at 5 μM, peptide varied, read-out: Km of peptide substrate Gly-Asn-Ala-Ala-Ser-[125I]Tyr-Arg-Arg): 7 µM; ability to act as a substrate for myristoyl CoA: protein N-myristoyl transferase (NMT) (wheat germ NMT; in words): leaves intact; substrate quality of CoA ester for wheat germ NMT compared with myristoyl CoA (wheat germ NMT; in words): at least as good a substrate; apparent maximal velocity relative to myristic acid (wheat germ NMT; peptide varied, fatty acid or analog at 5 μM): 2.3 times higher; Km compared with C14:0 fatty acid (yeast NMT; 11,000-fold purified yeast NMT): indistinguishable; Vmax compared with C14:0 fatty acid (yeast NMT; 11,000-fold purified yeast NMT): indistinguishable; hydrophobicity compared with myristic acid, in words [1]: decreases its hydrophobicity; also recorded: significantly different
213	160	1.5	24	CCCCCCCCSCCCCC(=O)O [C, 5-(Octylthio)pentanoic acid]	
62	64	1.8	12	CCOCCCCCCCCCCC(=O)O [B, 11-(Ethoxy)undecanoic acid]	
335	675	1.6	16	CCCCCCCCOCCCCC(=O)O [F, 5-(octyloxy)pentanoic acid]	
245	250	1.5	18	CCCSCCCCCCCCCC(=O)O [G, 10-(Propylthio)decanoic acid]	
232	163	6.9	12 to 13	COCCCCCCCCCCC(=O)O [D, 11-(Methoxy)undecanoic acid]	
				CCCCCCCCCC(=O)O [decanoic acid, reference compound]	elution time of fatty acyl derivative of GNAAAARR ([1]; reverse phase HPLC): 9 min
				CCCCCCCCCCCC(=O)O [dodecanoic acid, reference compound]	elution time of fatty acyl derivative of GNAAAARR ([1]; reverse phase HPLC): 18 min; elution time of fatty acyl derivative of GNAAS[125I]YRR ([1]; reverse phase HPLC, FIG. 2, text): 23 min
				CCCCCCCCCCCCCCCC(=O)O [palmitic acid, reference compound]	elution time of fatty acyl derivative of GNAAAARR ([1]; reverse phase HPLC): 30 min

Compound	Peptide Vm (yeast NMT) [%]	Acyl CoA Vm (yeast NMT) [%]	Km (yeast NMT) [µM]	Elution Time [1] [min]	other results
CCCCOCCCCCCCCCCC(=O)O [Compound I, 11-(1-Butoxy)undecanoic acid]	25	80	1	19	effectiveness as NMT substrate, in words (yeast NMT): less effective
